The text below walks through data of US12691092B2, “Method for reducing cutaneous skin scarring by pre-emptive priming and compounds and compositions for its implementation” (SOS SCIENCE OF SKIN LTD, priority 2020, dated 2026).

Experiment [1] concerns human skin scarring model. Description: Blood flow by dynamic optical coherence tomography (D-OCT). The class given is in vivo. How it is done: A double-blind randomized placebo-controlled trial was conducted using a temporal punch-biopsy model. The punch biopsy and topical application methodology used in the study is illustrated in FIG. 1, namely showing pre-injury pre-emptive priming (7-days), pre-injury pre-emptive priming (3-days), day of injury (immediate application on day 0), post-injury (delayed 2 weeks post injury) including biopsy time points and time of topical applications. Each group applied both placebo and topical formulations twice daily for the duration of the study until week 8, with only the starting time point differing between groups Participants were split into 4 groups (n=10 in each group) in order to compare different modes (timings) of commencement of the topical application: • Group-1: Pre-emptive Priming (7-days): pre-injury • Group-2: Pre-emptive Priming (3-days): pre-injury • Group-3: Immediate (0-day): day-of-injury • Group-4: Delayed (14-days): post-injury Clinical quantitative devices were used to objectively monitor cutaneous healing at weekly intervals and punch biopsies were performed on day 0 (uninjured skin) and at weeks 4 and 8 for protein and gene expression analyses. In the trial, topical EGCG and a placebo topical were applied twice daily for the duration of the trial until week 8 with only the starting time points differing between groups. Blood flow analysis using non-invasive objective measures, including full-field laser perfusion imaging (FLPI) and dynamic optical coherence tomography (D-OCT), was undertaken. Clinical images and the corresponding FLPI and D-OCT images are shown in FIGS. 6a, 6b and 6c respectively.

The next experiment relates to CD31. Description: CD31 angiogenic immunohistochemical marker in scar biopsies. It counts as in vivo, human. How it is done: A double-blind randomized placebo-controlled trial was conducted using a temporal punch-biopsy model. The punch biopsy and topical application methodology used in the study is illustrated in FIG. 1, namely showing pre-injury pre-emptive priming (7-days), pre-injury pre-emptive priming (3-days), day of injury (immediate application on day 0), post-injury (delayed 2 weeks post injury) including biopsy time points and time of topical applications. Each group applied both placebo and topical formulations twice daily for the duration of the study until week 8, with only the starting time point differing between groups Participants were split into 4 groups (n=10 in each group) in order to compare different modes (timings) of commencement of the topical application: • Group-1: Pre-emptive Priming (7-days): pre-injury • Group-2: Pre-emptive Priming (3-days): pre-injury • Group-3: Immediate (0-day): day-of-injury • Group-4: Delayed (14-days): post-injury Clinical quantitative devices were used to objectively monitor cutaneous healing at weekly intervals and punch biopsies were performed on day 0 (uninjured skin) and at weeks 4 and 8 for protein and gene expression analyses. In the trial, topical EGCG and a placebo topical were applied twice daily for the duration of the trial until week 8 with only the starting time points differing between groups. Clinical and experimental analysis involved use of non-invasive devices as well as protein and gene studies. Excisional skin biopsies in upper arms were evaluated weekly with multiple quantitative devices over an 8-week period. […] In order to further support these findings and the clinical findings, two well-known and established angiogenic immunohistochemical markers; CD31 and VEGF-A were used. […] There was a significant difference between groups (p=0.02) at week-4.

Experiment [2] concerns human skin scarring model. Description: Scar thickness by H+E stain. It counts as in vivo. The settings on record: weeks 4 and 8, Groups 1, 2 and 4. How it is done: A double-blind randomized placebo-controlled trial was conducted using a temporal punch-biopsy model. The punch biopsy and topical application methodology used in the study is illustrated in FIG. 1, namely showing pre-injury pre-emptive priming (7-days), pre-injury pre-emptive priming (3-days), day of injury (immediate application on day 0), post-injury (delayed 2 weeks post injury) including biopsy time points and time of topical applications. Each group applied both placebo and topical formulations twice daily for the duration of the study until week 8, with only the starting time point differing between groups Participants were split into 4 groups (n=10 in each group) in order to compare different modes (timings) of commencement of the topical application: • Group-1: Pre-emptive Priming (7-days): pre-injury • Group-2: Pre-emptive Priming (3-days): pre-injury • Group-3: Immediate (0-day): day-of-injury • Group-4: Delayed (14-days): post-injury Clinical quantitative devices were used to objectively monitor cutaneous healing at weekly intervals and punch biopsies were performed on day 0 (uninjured skin) and at weeks 4 and 8 for protein and gene expression analyses. […] Excisional skin biopsies in upper arms were evaluated weekly with multiple quantitative devices over an 8-week period. […]

With `O=C(OC1Cc2c(O)cc(O)cc2OC1c1cc(O)c(O)c(O)c1)c1cc(O)c(O)c(O)c1` (single isomer, unassigned; (-)) [EGCG, (-)-epigallocatechin-3-gallate], the “D-OCT blood flow, EGCG-treated compared to placebo” value in experiment [1] (group-1 weeks 1-8, group-2 weeks 1-8, group-3 weeks 1-5, 7, 8, group-4 weeks 4-7, p<0.01) is given as “significantly decreased”. For the same compound, in experiment [1] (week 1, p<0.001, p=0.006, p=0.001), the “D-OCT blood flow, group comparison, groups 1-3 vs group-4” value is “reduced blood flow more than group-4”. In addition, the “D-OCT blood flow, group comparison, group-1 vs group-4” value in experiment [1] (week 2, p=0.016) is “greater difference than group-4”. The “D-OCT blood flow, group comparison, group-2 vs groups-3 and -4” value in experiment [1] (week 8, p=0.003, p=0.002) is “reduced more than groups-3 and -4”. Moreover, the “Angiogenic markers in primed uninjured skin” value in the experiment on CD31 (primed uninjured skin prior to injury) is on record as “reduces angiogenic markers”. Besides, in the experiment with CD31 (week 4, 7-day priming vs delayed, p=0.01), the “CD31: larger reduction in group 1 compared to group-4” value is given as 40%. Moreover, the “CD31 in EGCG-treated samples compared with placebo” value with CD31 (weeks 4 and 8, all groups, p<0.01) is on record as “significantly down-regulated”. Further, the “Scar thickness by H+E stain with EGCG” value in experiment [2] was “reduced scar thickness”.
